How the values were obtained:
[1] = biological target: GDP-bound NRAS wild-type protein (Homo sapiens, UniProt P01111); assay: Binding to NRAS by surface plasmon resonance (SPR), Single Cycle Kinetics
[2] = biological target: GDP-bound HRAS wild-type protein (Homo sapiens, UniProt P01112); assay: Binding to HRAS by surface plasmon resonance (SPR), Single Cycle Kinetics
[3] = KD ratio, GDP-bound NRAS wild-type vs GDP-bound KRAS wild-type, SPR
[4] = KD ratio, GDP-bound HRAS wild-type vs GDP-bound KRAS wild-type, SPR
[5] = SPR, GDP-bound wild-type proteins

GDP-bound HRAS wild-type protein, sequence (P01112 whole entry): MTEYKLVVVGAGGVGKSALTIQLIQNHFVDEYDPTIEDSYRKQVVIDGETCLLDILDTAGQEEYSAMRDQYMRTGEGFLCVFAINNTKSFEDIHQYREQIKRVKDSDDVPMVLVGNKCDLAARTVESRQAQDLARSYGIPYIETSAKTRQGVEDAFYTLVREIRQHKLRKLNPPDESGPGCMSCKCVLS
GDP-bound NRAS wild-type protein, sequence (P01111 whole entry): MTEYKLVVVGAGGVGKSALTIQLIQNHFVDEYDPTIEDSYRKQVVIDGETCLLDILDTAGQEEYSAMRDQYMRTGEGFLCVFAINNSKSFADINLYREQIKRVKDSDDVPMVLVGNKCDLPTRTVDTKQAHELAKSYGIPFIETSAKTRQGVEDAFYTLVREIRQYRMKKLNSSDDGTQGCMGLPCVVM

CCO[C@@H]1C[C@H]2C(=O)NC3(CCC3)C(=O)N(C)[C@@H](C3CCCC3)C(=O)N(CC)[C@H](C(=O)N3CCOCC3)CC(=O)N(C)[C@@H](CCC(F)F)C(=O)N[C@@H]([C@@H](C)CC)C(=O)N(C)CC(=O)N(C)[C@H]3CCCCCN(C3=O)[C@@H](Cc3ccc(C(F)(F)F)cc3)C(=O)N(C)CC(=O)N[C@@H](CCc3cc(F)c(C(F)(F)F)c(F)c3)C(=O)N2C1 [PP0948]
NRAS/KRAS (ratio of KD value with respect to NRAS to KD value with respect to KRAS) [1, 3]: A (a compound having 10 or more and less than 20 is denoted as A) | HRAS/KRAS (ratio of KD value with respect to HRAS to KD value with respect to KRAS) [2, 4]: A (a compound having 10 or more and less than 20 is denoted as A)

CCO[C@@H]1C[C@H]2C(=O)NC3(CCC3)C(=O)N(C)[C@@H](C3CCCC3)C(=O)N3CCC[C@@H]3CC(=O)N(C)[C@@H](CC)C(=O)N[C@@H]([C@@H](C)CC)C(=O)N(C)CC(=O)N(C)[C@H]3C/C=C\CCN(C3=O)[C@@H](Cc3ccc(C(F)(F)F)cc3)C(=O)N(C)CC(=O)N[C@@H](CCc3cc(F)c(C(F)(F)F)c(F)c3)C(=O)N2C1 [PP1097]
NRAS/KRAS (ratio of KD value with respect to NRAS to KD value with respect to KRAS) [1, 3]: B (a compound having 3 or more and less than 10 is denoted as B) | HRAS/KRAS (ratio of KD value with respect to HRAS to KD value with respect to KRAS) [2, 4]: B (a compound having 3 or more and less than 10 is denoted as B)

CCO[C@@H]1C[C@H]2C(=O)NC3(CCC3)C(=O)N(C)[C@@H](C3CCCC3)C(=O)N(C)[C@H](C(=O)N(C)CCOC)CC(=O)N(C)[C@@H](CC(C)C)C(=O)N[C@@H]([C@@H](C)CC)C(=O)N(C)CC(=O)N(C)[C@H]3C/C=C\CCN(C3=O)[C@@H](Cc3ccc(C(F)(F)F)cc3)C(=O)N(C)CC(=O)N[C@@H](CCc3ccc(Cl)c(Cl)c3)C(=O)N2C1 [PP1326]
NRAS/KRAS (ratio of KD value for GDP-bound NRAS wild-type protein to KD value for KRAS) ([1]; SPR, KD ratio class): AA (a compound having 20 or more is denoted as AA) | HRAS/KRAS (ratio of KD value for GDP-bound HRAS wild-type protein to KD value for KRAS) ([2]; SPR, KD ratio class): A (a compound having 10 or more and less than 20 is denoted as A)

CC[C@H](C)[C@@H]1NC(=O)[C@H](CCOC)N(C)C(=O)C[C@@H](C(=O)N(C)CC)N(C)C(=O)[C@H](C2CCCC2)N(C)C(=O)C2(CC(C)(C)C2)NC(=O)[C@@H]2C[C@H](C)CN2C(=O)[C@H](CCc2ccc(C(F)(F)F)c(OC)c2)NC(=O)CN(C)C(=O)[C@H](Cc2ccc(C(F)(F)F)cc2)N2CC/C=C\C[C@@H](C2=O)N(C)C(=O)CN(C)C1=O [PP1999]
NRAS/KRAS (ratio of KD value for NRAS to KD value for KRAS) [1, 3]: A (a compound having 10 or more and less than 20 is denoted as A) | HRAS/KRAS (ratio of KD value for HRAS to KD value for KRAS) [2, 4]: B (a compound having 3 or more and less than 10 is denoted as B)

CCC[C@H]1C(=O)N[C@@H]([C@@H](C)CC)C(=O)N(C)CC(=O)N(C)[C@H]2C/C=C\CCN(C2=O)[C@@H](Cc2ccc(C(F)(F)F)cc2)C(=O)N(C)CC(=O)N[C@@H](CCc2ccc(C(F)(F)F)c(Cl)c2)C(=O)N2C[C@H](OCC)C[C@H]2C(=O)NC2(CC(C)(C)C2)C(=O)N(C)[C@@H](CC(C)C)C(=O)N(C)[C@H](C(=O)N(C)C)CC(=O)N1C [PP2977]
NRAS/KRAS (ratio of KD value with respect to GDP-bound NRAS wild-type protein to KD value with respect to KRAS) [1, 5]: A (a compound having 10 or more and less than 20 is denoted as A) | HRAS/KRAS (ratio of KD value with respect to GDP-bound HRAS wild-type protein to KD value with respect to KRAS) [2, 5]: A (a compound having 10 or more and less than 20 is denoted as A)

CCC[C@H]1C(=O)N[C@@H]([C@@H](C)CC)C(=O)N(C)CC(=O)N(C)[C@H]2C/C=C\CCN(C2=O)[C@@H](Cc2ccc(C)cc2)C(=O)N(C)CC(=O)N[C@@H](CCc2ccc(C(F)(F)F)c(OC)c2)C(=O)N2C[C@H](OCC)C[C@H]2C(=O)NC2(CC(C)(C)C2)C(=O)N(C)[C@@H](CC(C)(C)C)C(=O)N(C)[C@H](C(=O)N(C)C)CC(=O)N1C [PP2710]
NRAS/KRAS (ratio of KD value with respect to GDP-bound NRAS wild-type protein to KD value with respect to KRAS) ([1]; class symbols): B (a compound having 3 or more and less than 10 is denoted as B) | HRAS/KRAS (ratio of KD value with respect to GDP-bound HRAS wild-type protein to KD value with respect to KRAS) ([2]; class symbols): B (a compound having 3 or more and less than 10 is denoted as B)

CC[C@H](C)[C@@H]1NC(=O)[C@H](COC)N(C)C(=O)C[C@@H](C(=O)N(CC)CC)N(C)C(=O)[C@H](C2CCCC2)N(C)C(=O)C2(CC(C)(C)C2)NC(=O)[C@@H]2C[C@H](C)CN2C(=O)[C@H](CCc2ccc(C(F)(F)F)c(OC)c2)NC(=O)CN(C)C(=O)[C@H](Cc2ccc(C)cc2)N2CC/C=C\C[C@@H](C2=O)N(C)C(=O)CN(C)C1=O [PP2441]
NRAS/KRAS (ratio of KD value with respect to NRAS to KD value with respect to KRAS) ([1]; SPR, GDP-bound NRAS wild-type vs GDP-bound KRAS wild-type): AA (a compound having 20 or more is denoted as AA) | HRAS/KRAS (ratio of KD value with respect to HRAS to KD value with respect to KRAS) ([2]; SPR, GDP-bound HRAS wild-type vs GDP-bound KRAS wild-type): A (a compound having 10 or more and less than 20 is denoted as A)

From patent US20250230193A1, “CYCLIC COMPOUND HAVING SELECTIVE KRAS INHIBITORY EFFECT ON HRAS AND NRAS” (CHUGAI SEIYAKU KABUSHIKI KAISHA, priority 2022, published 2025)
